Measured values taken from patent US20230416261A1, “ETHANEDIAMINE-HETEROCYCLE DERIVATIVES AS INHIBITORS OF PROTEIN ARGININE METHYLTRANSFERASES” (Board of Regents, The University of Texas System, priority 2021, published 2023).

What was measured:
PRMT1 [1] = molecular target: T1, PRMT1 (Homo sapiens, UniProt Q99873); assay: PRMT1 RKO Cellular Target Engagement Assay (In-Cell Western, asymmetric di-methyl arginine); assay type: cell-based; details: RKO cells, 48 hr compound incubation; read-out: RKO IC50 (PRMT-1 Target Engagement)
T1 sequence (Q99873 whole entry): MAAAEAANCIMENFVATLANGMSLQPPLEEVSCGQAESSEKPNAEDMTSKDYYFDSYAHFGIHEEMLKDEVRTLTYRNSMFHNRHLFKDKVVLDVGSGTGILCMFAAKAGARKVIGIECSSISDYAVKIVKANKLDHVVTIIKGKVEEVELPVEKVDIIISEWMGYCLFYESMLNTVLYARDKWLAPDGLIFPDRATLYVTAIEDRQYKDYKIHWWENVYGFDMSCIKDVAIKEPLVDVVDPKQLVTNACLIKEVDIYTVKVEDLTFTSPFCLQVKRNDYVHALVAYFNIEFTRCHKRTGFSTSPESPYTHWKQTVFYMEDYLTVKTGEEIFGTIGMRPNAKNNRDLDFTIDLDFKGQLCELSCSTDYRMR
Method in brief: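 RKO cells (1,000/well) received 1:3 serially diluted compound for 48 h at 37 °C, then were fixed, permeabilised and immunostained for asymmetric di-methyl arginine by In-Cell Western. The 800 nm antibody signal was normalised to CellTag 700 nm; IC50 from four-parameter logistic fit.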

PATC53 cells = assay: PATC53 Long Term Phenotypic Assay (14 days, crystal violet viability); assay type: cell-based; details: 336 h
Method: PATC53 cells were derived from the PATC53 PDX model and kindly provided by Jason Fleming (MDACC). The cells were routinely maintained in DMEM/F12 Medium (Corning, Catalog #10-090-CV) supplemented with 10% fetal bovine serum (Sigma, Catalog #F2442), 100 units/mL penicillin and 100 μg/mL streptomycin (Gibco, Catalog #15140-122) in a humidified incubator (37° C., 5% CO2). Prior to the assay, cells were seeded onto a 12-well, TC treated plate (Corning, catalog #353043) at a density of 250 cells per well in a volume of 1 mL. The plate was incubated for 24 hours at 37° C. and 5% CO2. Stock solutions of the test compounds were prepared in 100% DMSO (Sigma, Catalog #D2650) and serially diluted 1:3 using 100% DMSO. Compounds were additionally diluted 1:100 in culture medium, and 110 μL/well was transferred to the tissue culture plate. Following the compound addition, the plate was incubated at 37° C. and 5% CO2 for 14 days. Viability was then assessed by crystal violet staining (Fisher Scientific, Catalog #C58125) as follows: 450 μL of crystal violet (1 mg/mL) was added to the plate for a 10 minute incubation at room temperature. After incubation, the plate was washed 3× with distilled water to remove excess dye and allowed to dry overnight. The crystal violet was solubilized using 10% HOAc (500 μL) for 10 minutes at room temperature, while shaking. A volume of 100 μL was then transferred to a 96-well SpectraPlate (Perkin Elmer, Catalog #6005649). Absorbance at 590 nm was measured with a BioTek Synergy Neo. IC50 values were calculated using a four-parameter logistic curve fit using Genedata Screener software.

DOHH2 cells = assay: DOHH2 Long Term Phenotypic Assay (7 days, Cell Titer-Glo viability); assay type: cell-based; details: Homo sapiens, DOHH-2, 168 h, Cell Titer-Glo 2.0
Method in brief: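 DOHH2 lymphoma cells (250 per well) in RPMI-1640 with 10% FBS were exposed to 1:3 serially diluted compounds for 7 days at 37 °C, 5% CO2. Viability was read by CellTiter-Glo 2.0 luminescence, and IC50 values came from four-parameter logistic fits.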

PRMT1 [2] = molecular target: T1, PRMT1; assay: PRMT1 Enzymatic Assay (LANCE TR-FRET, methylation of histone H4 at Arg3); assay type: biochemical; parameters: purchased SignalChem P365-380G; details: PRMT1 1.5 nM, SAM 1 μM, biotinylated histone H4 (1-21) 25 nM; read-out: PRMT-1 IC50
Method in brief: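 PRMT1 (1.5 nM) preincubated 15 min with compound at room temperature, then reacted 1 h with 1 μM SAM and 25 nM biotinylated histone H4 (1-21) in 50 mM Hepes pH 8, 1 mM TCEP, 0.003% Tween-20. H4R3me detected by TR-FRET (665/620 nm ratio); IC50 from four-parameter logistic fit.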

| Compound | IC50 (PRMT1 [1]) [nM] | IC50 (PATC53 cells) [nM] | IC50 (DOHH2 cells) [nM] | IC50 (PRMT1 [2]) [nM] |
| --- | --- | --- | --- | --- |
| CNCCN(C)Cc1nn2c(c1C1CCC(COC)(COC)CC1)CN(C(=O)C1CC1)CC2 [Example 5, (3-(4,4-bis(methoxymethyl)-cyclohexyl)-2-((methyl(2-(methylamino)ethyl)amino)-methyl)-6,7-dihydropyrazolo-[1,5-a]pyrazin-5(4H)-yl)-(cyclopropyl)methanone] | 121 | 58 | 81 | 34 |
| COCC1(COC)CCC(c2c(CN(C)CCN)nn3c2CN(C(=O)C2CC2)CC3)CC1 [Example 6, (2-(((2-aminoethyl)(methyl)-amino)methyl)-3-(4,4-bis-(methoxymethyl)cyclohexyl)-6,7-dihydropyrazolo[1,5-a]-pyrazin-5(4H)-yl)-(cyclopropyl)methanone] | 361 | 147 | 138 | 14 |
| CNCCN(C)Cc1nn2c(c1C1CCC(COC)(COC)CC1)CN(C(=O)C(C)(C)C)CC2 [Example 8, 1-(3-(4,4-bis(methoxy-methyl)cyclohexyl)-2-((methyl(2-(methylamino)-ethyl)amino)methyl)-6,7-dihydropyrazolo[1,5-a]-pyrazin-5(4H)-yl)-2,2-dimethylpropan-1-one] | 913 | 100 | 67 | 36 |
| COCC1(COC)CCC(c2c(CN(C)CCN)nn3c2CN(C(=O)C2CCC2)CC3)CC1 [Example 11, (2-(((2-aminoethyl)(methyl)-amino)methyl)-3-(4,4-bis-(methoxymethyl)cyclohexyl)-6,7-dihydropyrazolo[1,5-a]-pyrazin-5(4H)-yl)-(cyclobutyl)methanone] | 1210 | 70 | 111 | 16 |
| CNCCN(C)Cc1nn2c(c1C1CCC(COC)(COC)CC1)CN(C(=O)C1(F)CC1)CC2 [Example 13, (3-(4,4-bis(methoxymethyl)-cyclohexyl)-2-((methyl(2-(methylamino)ethyl)amino)-methyl)-6,7-dihydropyrazolo-[1,5-a]pyrazin-5(4H)-yl)(1-fluorocyclopropyl)methanone] | 225 | 38 | 150 | 56 |
| CNCCN(C)Cc1nn2c(c1C1CCC(COC)(COC)CC1)CN(C(=O)C1(OC)CC1)CC2 [Example 14, (3-(4,4-bis(methoxymethyl)-cyclohexyl)-2-((methyl(2-(methylamino)ethyl)amino)-methyl)-6,7-dihydropyrazolo-[1,5-a]pyrazin-5(4H)-yl)(1-methoxycyclopropyl)-methanone] | 124 | 478 | 211 | 94 |
| CNCCN(C)Cc1nn2c(c1C1CCC(COC)(COC)CC1)CN(C(=O)C1(C#N)CC1)CC2 [Example 15, 1-(3-(4,4-bis(methoxy-methyl)cyclohexyl)-2-((methyl(2-(methylamino)-ethyl)amino)methyl)-4,5,6,7-tetrahydropyrazolo[1,5-a]-pyrazine-5-carbonyl)cyclopropane-1-carbonitrile] | 370 | 732 | 211 | 71 |
| CNCCN(C)Cc1nn2c(c1C1CCC(COC)(COC)CC1)CN(C(=O)C1(C)COC1)CC2 [Example 16, (3-(4,4-bis(methoxymethyl)-cyclohexyl)-2-((methyl(2-(methylamino)ethyl)amino)-methyl)-6,7-dihydropyrazolo-[1,5-a]pyrazin-5(4H)-yl)(3-methyloxetan-3-yl)methanone] | 370 | 209 | 160 | 64 |
| CNCCN(C)Cc1nn2c(c1C1CCC(COC)(COC)CC1)CN(C(=O)C1(C(F)(F)F)CC1)CC2 [Example 18, (3-(4,4-bis(methoxymethyl)-cyclohexyl)-2-((methyl(2-(methylamino)ethyl)amino)-methyl)-6,7-dihydropyrazolo-[1,5-a]pyrazin-5(4H)-yl)(1-(trifluoro-methyl)cyclopropyl)-methanone] | 137 | 48 | 142 | 60 |
| CNCCN(C)Cc1nn2c(c1C1CCC(COC)(COC)CC1)CN(C(=O)C1(C)CCC1)CC2 [Example 19, (3-(4,4-bis(methoxymethyl)-cyclohexyl)-2-((methyl(2-(methylamino)ethyl)amino)-methyl)-6,7-dihydropyrazolo-[1,5-a]pyrazin-5(4H)-yl)(1-methylcyclobutyl)methanone] | 214 | 37 | 87 | 52 |
| CNCCN(C)Cc1nn2c(c1C1CCC(COC)(COC)CC1)CN(C(=O)C13CC(C1)C3)CC2 [Example 20, bicyclo[1.1.1]pentan-1-yl(3-(4,4-bis(methoxymethyl)-cyclohexyl)-2-((methyl(2-(methylamino)ethyl)amino)-methyl)-6,7-dihydropyrazolo-[1,5-a]pyrazin-5(4H)-yl)-methanone] | 239 | 50 | 103 | 62 |
| CNCCN(C)Cc1nn2c(c1C1CCC(COC)(COC)CC1)CN(C(=O)C13CC(F)(C1)C3)CC2 [Example 21, (3-(4,4-bis(methoxymethyl)-cyclohexyl)-2-((methyl(2-(methylamino)ethyl)amino)-methyl)-6,7-dihydropyrazolo-[1,5-a]pyrazin-5(4H)-yl)(3-fluorobicyclo[1.1.1]pentan-1-yl)methanone] | 185 | 68 | 96 | 53 |
| CNCCN(C)Cc1nn2c(c1C1CCC(COC)(COC)CC1)CN(C(=O)C1(C(C)(F)F)COC1)CC2 [Example 23, (3-(4,4-bis(methoxymethyl)-cyclohexyl)-2-((methyl(2-(methylamino)ethyl)amino)-methyl)-6,7-dihydropyrazolo-[1,5-a]pyrazin-5(4H)-yl)(3-(1,1-difluoroethyl)oxetan-3-yl)methanone] | 382 | 264 | 147 | 137 |
| CNCCN(C)Cc1nn2c(c1C1CCC(COC)(COC)CC1)CN(C(=O)C(C)C)CC2 [Example 24, 1-(3-(4,4-bis(methoxy-methyl)cyclohexyl)-2-((methyl(2-(methylamino)-ethyl)amino)methyl)-6,7-dihydropyrazolo[1,5-a]-pyrazin-5(4H)-yl)-2-methylpropan-1-one] | 254 | 69 | 103 | 76 |
| CNCCN(C)Cc1nn2c(c1C1CCC(COC)(COC)CC1)CN(C(=O)C13CC(OC)(C1)C3)CC2 [Example 25, (3-(4,4-bis(methoxymethyl)-cyclohexyl)-2-((methyl(2-(methylamino)ethyl)amino)-methyl)-6,7-dihydropyrazolo-[1,5-a]pyrazin-5(4H)-yl)(3-methoxybicyclo[1.1.1]pentan-1-yl)methanone] | 419 | 203 | 150 | 82 |
| CNCCN(C)Cc1nn2c(c1C1CCC(COC)(COC)CC1)CN(C(=O)CC1CC1)CC2 [Example 27, 1-(3-(4,4-bis(methoxy-methyl)cyclohexyl)-2-((methyl(2-(methylamino)-ethyl)amino)methyl)-6,7-dihydropyrazolo[1,5-a]-pyrazin-5(4H)-yl)-2-cyclopropylethan-1-one] | 318 | 115 | 79 | 59 |
| CNCCN(C)Cc1nn2c(c1C1CCC(COC)(COC)CC1)CN(C(=O)C1(OC)CCC1)CC2 [Example 28, (3-(4,4-bis(methoxymethyl)-cyclohexyl)-2-((methyl(2-(methylamino)ethyl)amino)-methyl)-6,7-dihydropyrazolo-[1,5-a]pyrazin-5(4H)-yl)(1-methoxycyclobutyl)-methanone] | 907 | 435 | 207 | 139 |
